Laboratory results as given in ChEMBL document CHEMBL5625245, “Novel ProTide prodrugs of 5-fluoro-2'-deoxyuridine for the treatment of liver cancer” (Eur J Med Chem, 2023).
≈ marks a conversion by molar mass, not a printed value.

How the values were obtained:
[1] = Antiproliferative activity against human L02 cells assessed as reduction in cell viability measured after 48 to 72 hrs by MTT assay; type: toxicity, cell-based
[2] = Selectivity index, ratio of IC50 for human L02 cells to IC50 for human HepG2 cells; type: toxicity; settings: L02 cells and HepG2 cells, read-out: Ratio IC50
[3] = (§1) Drug metabolism in rat liver homogenate assessed as formation of (2S)-2-[[[(2R,3S,5R)-3-[(2S)-1-[(2S)-2-(tert-butoxycarbonylamino)-3-methyl-butanoyl]pyrrolidine-2-carbonyl]oxy-5-(5-fluoro-2,4-dioxo-pyrimidin-1-yl)tetrahydrofuran-2-yl]methoxy-hydroxy-phosphoryl]amino]propanoic acid measured after 120 mins; type: ADME, tissue-based; settings: tissue homogenate, 2 h
[4] = Solubility of the compound in 5% DMSO/8% Tween80/87% saline at 25 degreeC by HPLC analysis; type: physicochemical
[5] = Toxicity in orthotopic mouse assessed as effect on spleen at 60 mg/kg, iv administered twice daily for 18 days by H and E staining based analysis; type: organism-based; settings: in vivo, 432 h, time 18 day
Bel-7402 [6] = experiment: Antiproliferative activity against human Bel-7402 cells assessed as reduction in cell viability measured after 48 to 72 hrs by MTT assay; type: functional, cell-based
[7] = Solubility of the compound in 5% PBS/95% saline at 25 degreeC by HPLC analysis; type: physicochemical
[8] = Solubility of the compound in 2% DMSO/8% tween80/90% saline at 25 degreeC by HPLC analysis; type: physicochemical
HepG2 [9] = experiment: Antiproliferative activity against human HepG2 cells assessed as reduction in cell viability at 20 uM measured after 48 hrs by MTT assay relative to control; type: functional
[10] = Solubility of the compound in 100% saline at 25 degreeC by HPLC analysis; type: physicochemical
HepG2 [11] = experiment: Antitumor activity against human HepG2 cells xenografted in orthotopic mouse model assessed as tumor growth inhibition at 60 mg/kg, iv administered twice daily for 18 days in presence of 5-Fluorouracil relative to control; type: functional; settings: HepG2, 432 h, time 18 day, read-out: TGI
[12] = Metabolic stability in human plasma assessed as half life at 1 mg/ml measured upto 72 hrs by HPLC analysis; type: ADME, cell-free
[13] = Toxicity in orthotopic mouse assessed as effect on lung at 60 mg/kg, iv administered twice daily for 18 days by H and E staining based analysis; type: organism-based; settings: in vivo, 432 h, time 18 day
[14] = Toxicity in orthotopic mouse assessed as effect on drug tolerance at 60 mg/kg, iv administered twice daily for 18 days; type: organism-based; settings: in vivo, 432 h, time 18 day
[15] = Toxicity in orthotopic mouse assessed as effect on body weight at 60 mg/kg, iv administered twice daily for 18 days; type: organism-based; settings: in vivo, 432 h, time 18 day
[16] = as §1, with “20” for “120”; type: ADME, tissue-based; settings: tissue homogenate
[17] = Toxicity in orthotopic mouse assessed as change in liver weight at 60 mg/kg, iv administered twice daily for 18 days; type: organism-based; settings: in vivo, 432 h, time 18 day
[18] = Antiproliferative activity against human NCM460 cells assessed as reduction in cell viability measured after 48 to 72 hrs by MTT assay; type: toxicity, cell-based
[19] = Solubility of the compound in 5% DMSO/10% cremophor EL/85% saline at 25 degreeC by HPLC analysis; type: physicochemical
[20] = Solubility of the compound in 5% PEG300/95% saline at 25 degreeC by HPLC analysis; type: physicochemical
[21] = Toxicity in orthotopic mouse assessed as effect on kidney at 60 mg/kg, iv administered twice daily for 18 days by H and E staining based analysis; type: organism-based; settings: in vivo, 432 h, time 18 day
[22] = Selectivity index, ratio of IC50 for human L02 cells to IC50 for human Bel-7402 cells; type: toxicity; settings: L02 cells and Bel-7402 cells, read-out: Ratio IC50
HepG2 [23] = experiment: Antiproliferative activity against human HepG2 cells assessed as reduction in cell viability measured after 48 to 72 hrs by MTT assay; type: functional, cell-based
[24] = Metabolic stability in rat plasma assessed as half life at 1 mg/ml measured upto 72 hrs by HPLC analysis; type: ADME, cell-free
[25] = Solubility of the compound in 5% DMSO/95% saline at 25 degreeC by HPLC analysis; type: physicochemical
[26] = Toxicity in orthotopic mouse assessed as effect on liver at 60 mg/kg, iv administered twice daily for 18 days by H and E staining based analysis; type: organism-based; settings: in vivo, 432 h, time 18 day
[27] = Solubility of the compound in 5% DMSO/10% Tween80/85% saline at 25 degreeC by HPLC analysis; type: physicochemical
HepG2 [28] = experiment: Antitumor activity against human HepG2 cells xenografted in orthotopic mouse model assessed as average number of tumor at 60 mg/kg, iv administered twice daily for 18 days in presence of 5-Fluorouracil (reference value: 49+/3.6 mM); type: functional; settings: time 18 day
Bel-7402 [29] = experiment: Antiproliferative activity against human Bel-7402 cells assessed as reduction in cell viability at 20 uM measured after 48 hrs by MTT assay relative to control; type: functional
[30] = Solubility of the compound in 2% DMSO/10% tween80/88% saline at 25 degreeC by HPLC analysis; type: physicochemical
[31] = Solubility of the compound in 5% DMSO/10% PEG300/85% saline at 25 degreeC by HPLC analysis; type: physicochemical
[32] = Metabolic stability in rat liver homogenates assessed as half life at 1 mg/ml measured after 4 hrs by HPLC analysis; type: ADME, tissue-based
[33] = Toxicity in orthotopic mouse assessed as effect on heart at 60 mg/kg, iv administered twice daily for 18 days by H and E staining based analysis; type: organism-based; settings: in vivo, 432 h, time 18 day
HepG2 [34] = experiment: Antitumor activity against human HepG2 cells xenografted in orthotopic mouse model assessed as average number of tumor at 15 mg/kg, iv administered twice daily for 18 days (reference value: 49+/3.6 mM); type: functional; settings: time 18 day
HepG2 [35] = experiment: Antitumor activity against human HepG2 cells xenografted in orthotopic mouse model assessed as tumor growth inhibition at 15 mg/kg, iv administered twice daily for 18 days relative to control; type: functional; settings: HepG2, 432 h, time 18 day, read-out: TGI
[36] = Drug metabolism in rat liver homogenate assessed as (2S)-2-[[[(2R,3S,5R)-3-[(2S)-2-(tert-butoxycarbonylamino)propanoyl]oxy-5-(5-fluoro-2,4-dioxo-pyrimidin-1-yl)tetrahydrofuran-2-yl]methoxy-hydroxy-phosphoryl]amino]propanoic acid formation measured upto 90 mins; type: ADME, tissue-based; settings: tissue homogenate, 1.5 h

SMILES | IC50 [1] | selectivity ratio [2] | solubility [4] | Activity [5] | IC50 (Bel-7402 [6]) | solubility [7] | solubility [8] | Activity (HepG2 [9]) | solubility [10] | inhibition in vivo at 60 mg/kg (HepG2 [11]) | half-life at 1 mg/ml [12] | Activity [13] | Activity [14] | Activity [15] | Activity [17] | IC50 [18] | solubility [19] | solubility [20] | Activity [21] | IC50 (HepG2 [23]) | further results
CC(C)OC(=O)[C@H](C)N[P@](=O)(OC[C@H]1O[C@@H](n2cc(F)c(=O)[nH]c2=O)C[C@@H]1OC(=O)[C@@H]1CCCN1C(=O)[C@@H](NC(=O)OC(C)(C)C)C(C)C)Oc1ccccc1 | > 100 µM | 307 | 5000 µg/mL (≈ 6.16 mM) | Non-Toxic | 0.81 µM | < 1000 µg/mL | < 5000 µg/mL | 75.24% | < 1000 µg/mL | 28.6% | > 48 h | Non-Toxic | Non-Toxic | Non-Toxic | Toxic | > 100 µM | 5000 µg/mL (≈ 6.16 mM) | < 1000 µg/mL | Non-Toxic | 0.54 µM | Drug metabolism [3]: Metabolite_Detected; Drug metabolism [16]: Metabolite_Detected; selectivity ratio [22]: 205; half-life at 1 mg/ml [24]: > 48 h; solubility [25]: < 1000 µg/mL; Activity [26]: Non-Toxic; solubility [27]: > 10000 µg/mL; tumour count (HepG2 [28]): 35; Activity (Bel-7402 [29]): >70%; solubility [30]: > 10000 µg/mL; solubility [31]: < 1000 µg/mL; half-life at 1 mg/ml [32]: 1.63 h; Activity [33]: Non-Toxic
O=c1[nH]cc(F)c(=O)[nH]1 [FLUOROURACIL] | > 100 µM | – | – | – | 36.5 µM | – | – | 8.31% | – | – | – | – | – | – | – | > 100 µM | – | – | – | > 100 µM | Activity (HepG2 [34]): 49 mM; inhibition in vivo at 15 mg/kg (HepG2 [35]): 0%
CC(C)OC(=O)[C@H](C)N[P@](=O)(OC[C@H]1O[C@@H](n2cc(F)c(=O)[nH]c2=O)C[C@@H]1OC(=O)[C@H](C)NC(=O)OC(C)(C)C)Oc1ccccc1 | > 100 µM | 310 | 5000 µg/mL (≈ 7.28 mM) | Non-Toxic | 0.79 µM | < 1000 µg/mL | < 5000 µg/mL | 83.61% | < 1000 µg/mL | 75.5% | > 48 h | Non-Toxic | Non-Toxic | Non-Toxic | Toxic | > 100 µM | 5000 µg/mL (≈ 7.28 mM) | < 1000 µg/mL | Non-Toxic | 0.42 µM | selectivity ratio [22]: 165; half-life at 1 mg/ml [24]: > 48 h; solubility [25]: < 1000 µg/mL; Activity [26]: Non-Toxic; solubility [27]: > 10000 µg/mL; tumour count (HepG2 [28]): 12; Activity (Bel-7402 [29]): 82.19%; Drug metabolism [36]: Metabolite_Detected; solubility [30]: > 10000 µg/mL; solubility [31]: < 1000 µg/mL; half-life at 1 mg/ml [32]: 0.16 h; Activity [33]: Non-Toxic
